Laboratory results taken from ChEMBL document CHEMBL2028040, “Malaria Box”.

Columns and labels:
[1] = test system: Plasmodium falciparum; test: MMV: Inhibition of Plasmodium falciparum 3D7 at 5uM compound concentration.; type: functional
[2] = test system: Plasmodium falciparum; test: MMV: Inhibition of Plasmodium falciparum 3D7 (EC50).; type: functional, organism-based
[3] = test system: Trypanosoma cruzi; test: MMV: Inhibition of Trypanosoma cruzi (Tulahuen C4 LacZ) (Chagas in vitro).; type: functional, organism-based
[4] = test system: Trypanosoma brucei brucei; test: MMV: Inhibition of Trypanosoma brucei brucei (Squib 427) (HAT in vitro).; type: functional, organism-based
[5] = test system: Trypanosoma brucei rhodesiense; test: MMV: Inhibition of Trypanosoma brucei rhodesiense (STIB 900) (HAT in vitro).; type: functional, organism-based
[6] = test system: Leishmania infantum; test: MMV: Inhibition of Leishmania infantum (MHOM/MA/BE/67) in vitro.; type: functional, organism-based
[7] = MMV: Cytotoxicity against human fibroblasts (MRC-5) cells.; details: MRC-5 cells (human fibroblasts)

| SMILES | inhibition at 5 µM [1] [%] | EC50 [2] [µM] | IC50 [3] [µM] | IC50 [4] [µM] | IC50 [5] [µM] | IC50 [6] [µM] | IC50 [7] [µM] |
| --- | --- | --- | --- | --- | --- | --- | --- |
| COc1ccc(/C=C2/SC(=Nc3ccccc3)NC2=O)cc1 | 71 | 0.551 | > 32 | > 32 | 16.3 | > 32 | 11.5 |
| CCN1CCN(Cc2ccc(NC(=O)c3cc4ccc5cccnc5c4[nH]3)cc2)CC1 | 70 | 0.361 | 8 | 3.78 | 0.928 | 6.35 | 8.47 |
| Cc1ccc(-c2cc(C(=O)Nc3ccc(S(=O)(=O)N4CCCCC4)cc3)[nH]n2)c(O)c1 | 94 | 0.535 | > 32 | > 32 | > 32 | > 32 | > 32 |
| COc1cc(C(=O)Nc2ccc(-c3nc4ccccc4[nH]3)cc2)cc(OC)c1OC | 95 | 1.22 | > 32 | 3.37 | 2.54 | > 32 | > 32 |
| O=C(NC1CCN(Cc2ccccc2)CC1)c1cc(-c2ccncc2)nc2ccc(Cl)cc12 | 92 | 1.02 | 4.59 | 4.03 | 3.51 | 16.2 | > 32 |
| c1ccc(-c2ccc(-c3nc4ccccc4[nH]3)cc2)cc1 | 52 | 1.07 | > 32 | > 32 | > 32 | > 32 | > 32 |
| COc1ccc2nc(C)cc(Nc3cccc(O)c3)c2c1 | 98 | 0.969 | 15 | 4.41 | 5.08 | 16 | > 32 |
| CC(Oc1ccc(NC(=O)c2cccs2)cc1)C(=O)c1ccc(Cl)cc1 (stereo not given) | 87 | 1.03 | 15.4 | 15.5 | 10.3 | > 32 | > 32 |
| Cc1[nH]c(-c2ccc(F)cc2)cc1C(=O)NC1CCN(Cc2ccccc2)CC1 | 99 | 0.771 | > 32 | 6.26 | 4.03 | > 32 | > 32 |
| COc1ccc(CNC(=O)c2cc3c(=O)n4ccccc4nc3n(CCc3ccccc3)c2=N)cc1 | 95 | 1.06 | 4.91 | 11.9 | 3.15 | 13.6 | 14.7 |
| CCOc1cc(Br)c(C(C)NC(=O)c2cccc(OC)c2)cc1OCC (stereo not given) | 96 | 1.43 | > 32 | > 32 | > 32 | > 32 | > 32 |
| CC(C)=CCN1CCC(C(=O)Nc2ccc(-c3nc4ccccc4[nH]3)cc2)CC1 | 96 | 1.16 | 23 | 5.04 | 2.34 | > 32 | > 32 |
| O=C(NCCCN1CCC(N2CCCCC2)CC1)C1=Cc2cc(Br)ccc2OC1 | 99 | 0.563 | 4.22 | 0.805 | 0.859 | 4.03 | 12 |
| Fc1ccc2[nH]c3c(NCCCN4CCOCC4)ncnc3c2c1 | 98 | 0.345 | > 32 | > 32 | 18.3 | > 32 | > 32 |
| Cc1ccc(Cl)cc1N1CCN(CCCNC(=O)C2CCN(c3nc4ccccc4[nH]3)CC2)CC1 | 97 | 1.33 | 3.74 | 1.31 | 1.01 | 4 | 14.5 |
| COc1ccc(C(=O)Nc2nonc2-c2ccc(OC)c(OC)c2)cc1Cl | 92 | 0.516 | > 32 | > 32 | > 32 | > 32 | > 32 |
| O=C(Nc1ccc(CN2CCOCC2)cc1)c1ccc(-c2cc(Cl)ccc2Cl)o1 | 97 | 1.95 | 12.1 | 14.9 | 4.44 | 25.4 | 17.4 |
| CCOc1ccc(C2N(C)c3ccccc3N2C)cc1 | 72 | 0.941 | 3.1 | > 32 | > 32 | 25.4 | 15.5 |
| O=C(Nc1ccc(-c2nc3ccccc3[nH]2)cc1)c1ccc(Cl)c(Cl)c1 | 97 | 0.838 | > 32 | > 32 | > 32 | > 32 | > 32 |
| CCOc1cc(Cl)c(C(C)NC(=O)c2ccccc2)cc1OCC (stereo not given) | 96 | 1.37 | > 32 | > 32 | > 32 | > 32 | > 32 |

| SMILES | inhibition at 5 µM [1] [%] | EC50 [2] [µM] | IC50 [3] [µM] | IC50 [4] [µM] | IC50 [5] [µM] | IC50 [6] [µM] | IC50 [7] [µM] |
| --- | --- | --- | --- | --- | --- | --- | --- |
| COc1ccc(C2NCCc3c2[nH]c2ccccc32)cc1CN1CCN(c2ccc(F)cc2)CC1 (stereo not given) | 97 | 0.934 | 2.75 | 2.78 | 0.246 | 1.19 | 3.94 |
| O=C(Nc1cccc(-c2nc3ccccc3[nH]2)c1)c1cccc(NC(=O)c2ccco2)c1 | 95 | 0.745 | > 32 | > 32 | > 32 | > 32 | > 32 |
| O=C(NC1CCN(Cc2ccccc2)CC1)c1cc(-c2cccnc2)nc2ccc(Cl)cc12 | 91 | 1.01 | > 32 | 14 | 3.83 | > 32 | > 32 |
| O=C(Nc1ccc(CN2CCOCC2)cc1)c1ccc(-c2ccc(Br)cc2)o1 | 96 | 1.36 | 11 | 3.61 | 3.86 | 18.4 | 4.81 |
| COc1nc(Nc2ccc(C(C)C)cc2)nc(OC)n1 | 88 | 1.14 | 24.5 | 10.9 | 10.7 | > 32 | > 32 |
| Nc1ccc(-c2nc3cc(Oc4ccc(Oc5ccc6[nH]c(-c7ccc(N)cc7)nc6c5)cc4)ccc3[nH]2)cc1 | 97 | 0.842 | 3.91 | 1.94 | 2.74 | 4.06 | 8 |
| CCOc1ccc(-n2cc(-c3ccccc3)c3c(SCc4cc(C)ccc4C)ncnc32)cc1 | 97 | 1.71 | > 32 | > 32 | 25 | > 32 | > 32 |
| Cc1cc(NC(=O)c2ccc(-c3ccccc3)cc2)no1 | 95 | 0.693 | > 32 | > 32 | > 32 | > 32 | > 32 |
| COc1cccc(-c2nn(C)c3sc(C(=O)NCCN4CCN(c5ccccc5F)CC4)cc23)c1 | 91 | 1.3 | > 32 | 16 | 5.31 | > 32 | > 32 |
| COc1cc(-c2nc(-c3ccccc3)c(-c3ccccc3)[nH]2)cc(OC)c1O | 97 | 1.18 | 28.3 | 11.9 | 9.75 | 25.4 | > 32 |
| O=C(Nc1ccc(N2CCN(Cc3ccccc3)CC2)cc1)c1cccs1 | 59 | 1.07 | > 32 | 14.6 | 9.69 | > 32 | > 32 |
| O=C(Nc1ccc(-c2nc3cc4ccccc4cc3[nH]2)cc1)c1cccc(Br)c1 | 93 | 0.45 | > 32 | > 32 | > 32 | > 32 | > 32 |
| Cc1cc(C)c2nc(N3CCC(C(=O)NCCCN4CCC(N5CCCCC5)CC4)CC3)sc2c1 | 98 | 0.697 | 0.85 | 0.22 | < 0.125 | 4.06 | 4.25 |
| COc1cc(CNCCc2ccc(Cl)cc2)cc(OC)c1O | 97 | 1.79 | > 32 | 15 | 12.1 | > 32 | > 32 |
| O=c1nc(C=Cc2ccc(Cl)cc2)oc2ccccc12 | 76 | 0.995 | > 32 | > 32 | 27.4 | > 32 | > 32 |
| COc1cc(OC)cc(N2C(=O)N(Cc3ccc(C(C)(C)C)cc3)c3ccccc3S2(=O)=O)c1 | 97 | 1.43 | 8.64 | 18.4 | 4.06 | 16.2 | > 32 |
| CCCc1c(CC)c(=N)c2ccccc2n1C | 69 | 0.242 | 0.415 | 21 | 16.2 | > 32 | 30.6 |
| COc1ccc(C(=O)C2CC2c2ccc(Cl)cc2)cc1 (stereo not given) | 94 | 1.06 | > 32 | > 32 | > 32 | > 32 | > 32 |
| CCOC(=O)c1cnc2c(C)cc(C)cc2c1Nc1ccc(OC)c(OC)c1 | 96 | 0.232 | > 32 | > 32 | > 32 | > 32 | > 32 |
| CCCn1c(=N)c(C(=O)NC2CCCCC2)cc2c(=O)n3cccc(C)c3nc21 | 96 | 1.11 | > 32 | 16.1 | 8.44 | > 32 | > 32 |
